Data published in US6323204A, “Methods for using (2-imidazolin-2-ylamino) quinoxaline derivatives” (Allergan, priority 1998, dated 2001).
Where two headings read alike, the source gives them in different places.

Tests used:
[1] = mouse hexobarbital sleep time test (central nervous system anesthetization activity); type: in vivo; details: i.v., with hexobarbital 75 mg/kg i.p., dose which potentiates sleep time by 15 minutes
Method: (§1) Two (2) animal models were utilized to determine the central nervous system anesthetization activity of the quinoxaline derivative produced in Example 2.
(§2) The first of these animal models is identified generally as the mouse hexobarbital sleep time test. Briefly, the compound in question (in a dosage range of between 10 and 500 micrograms/kg, i.v.) and the barbiturate hexobarbital (75 mg/kg, i.p) are coadministered to mice weighing 20 to 22 grams. […] Sleep time is assessed as the time associated with the loss of the animal's reflex to right itself when placed on its back. The ED15 is estimated from dose-response data as the effective dose which potentiates sleep time by 15 minutes. The second animal model used is identified generally as the rat activity test. Briefly, rats weighing 140 to 160 grams are placed into an environmentally isolated activity monitor five (5) minutes following administration of the compound in question (in the range of 1 to 1000 micrograms/kg, i.v.). Horizontal activity, measured in counts is determined for five (5) minutes.
(§3) The final quinoxaline derivative produced in Example 2 was tested using both of the above-noted animal models. For comparison purposes, clonidine and its hydrophilic analog, p-amino-clonidine, were also tested using these animal models.

[2] = rat activity test (central nervous system anesthetization activity); type: in vivo; details: iv, read-out: ID50 Rat Activity
Method: as §1, §2, §3

[3] = in words; stated as known; cited from earlier work
[4] = in words
Method: The final quinoxaline derivative produced in Example 2, that is 5-bromo-6-(2-imidazolin-2-ylamino)quinoxaline, was tested for central nervous system anesthetization activity as follows.
as §1, §2
The final quinoxaline derivative produced in Example 2 was tested using both of the above-noted animal models. […]

Compound	ED15 Mouse Sleep-Time [1]	ED50 ([2]; Rattus norvegicus)	anesthetization activity (known) [3]	ED50 ([2]; rat, i.v., dose which decreases horizontal activity by 50%)	central nervous system anesthetization activity compared with the hydrophilic analog of clonidine (p-amino clonidine) [4]	central nervous system anesthetization activity ([4]; mouse sleep time and rat activity tests)
Clc1cccc(Cl)c1N=C1NCCN1 [Clonidine]	0.075 mg/kg	0.026 mg/kg	significant anesthetization activity	–	–	–
Nc1cc(Cl)c(NC2=NCCN2)c(Cl)c1 [p-Amino Clonidine]	> 0.5 mg/kg	–	–	0.302 mg/kg	–	–
Brc1c(NC2=NCCN2)ccc2nccnc12 [Example 2, 5-bromo-6-(2-imidazolin-2-ylamino) quinoxaline]	0.116 mg/kg	0.077 mg/kg	–	–	substantially more of such activity	substantial central nervous system anesthetization activity
